By IC50 is commonly meant the concentration at which inhibition is half-maximal. Usually half-life stands for the time in which the quantity being followed falls by half.

The text below walks through data of US20240308973A1, “PHOSPHODIESTERASE 3 (PDE3) INHIBITORS” (Zoetis Services LLC, priority 2023, published 2024).

Structures are written as SMILES. Where “and” joins values, the source holds several entries; their conditions need not be identical. Identical values can stand only once.

The target of data set [1] is dog PDE3A recombinant enzyme (Canis lupus familiaris, UniProt A0A8I3NYE0). In words: cPDE3A assay (fluorescent polarization). To be noted: canine PDE3A, read-out: cPDE3 Inhibition (IC50). The data set is classed as biochemical. The method, boiled down: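 Recombinant dog PDE3A (5 pg/μL final) with FAM-cyclic-3′,5′-AMP substrate, inhibition read as fluorescence polarization change. Compounds tested in ≥7-point series from 10 μM, 0.1% final DMSO; IC50 calculated.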
dog PDE3A recombinant enzyme, sequence (A0A8I3NYE0 1-1135): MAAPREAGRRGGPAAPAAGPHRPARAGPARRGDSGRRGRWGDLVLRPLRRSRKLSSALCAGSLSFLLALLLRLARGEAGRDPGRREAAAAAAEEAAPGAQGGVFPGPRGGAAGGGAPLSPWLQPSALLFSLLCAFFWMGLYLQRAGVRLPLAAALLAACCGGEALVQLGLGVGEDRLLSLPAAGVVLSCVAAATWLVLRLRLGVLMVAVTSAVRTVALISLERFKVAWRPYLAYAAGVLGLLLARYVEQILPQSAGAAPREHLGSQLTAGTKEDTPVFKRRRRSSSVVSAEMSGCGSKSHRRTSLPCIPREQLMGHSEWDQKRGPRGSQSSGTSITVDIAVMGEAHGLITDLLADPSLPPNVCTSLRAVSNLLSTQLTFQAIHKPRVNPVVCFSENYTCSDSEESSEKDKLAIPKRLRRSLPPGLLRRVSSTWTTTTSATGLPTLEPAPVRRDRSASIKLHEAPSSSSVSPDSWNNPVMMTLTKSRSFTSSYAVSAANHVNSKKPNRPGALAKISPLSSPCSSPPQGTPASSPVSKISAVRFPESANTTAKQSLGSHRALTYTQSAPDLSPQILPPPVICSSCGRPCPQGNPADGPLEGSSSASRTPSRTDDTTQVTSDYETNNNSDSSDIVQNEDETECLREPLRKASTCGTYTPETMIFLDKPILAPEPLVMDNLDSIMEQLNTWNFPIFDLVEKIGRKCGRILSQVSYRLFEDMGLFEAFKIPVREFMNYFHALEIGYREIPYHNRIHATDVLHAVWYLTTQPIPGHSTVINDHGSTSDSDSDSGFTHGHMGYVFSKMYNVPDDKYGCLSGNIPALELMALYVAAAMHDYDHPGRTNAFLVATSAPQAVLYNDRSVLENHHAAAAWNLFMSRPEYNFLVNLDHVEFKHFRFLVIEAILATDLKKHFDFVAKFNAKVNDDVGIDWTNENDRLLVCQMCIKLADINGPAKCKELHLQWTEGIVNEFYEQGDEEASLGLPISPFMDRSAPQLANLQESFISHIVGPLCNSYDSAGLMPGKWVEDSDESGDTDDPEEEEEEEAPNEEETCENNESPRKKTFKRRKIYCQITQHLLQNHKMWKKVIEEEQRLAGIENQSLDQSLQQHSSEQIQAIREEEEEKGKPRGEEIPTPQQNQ

The subject of data set [2] is human iCell cardiomyocytes. Put plainly: Human iPS cardiomyocyte contractility assay. To be noted: human cardiomyocytes chronically paced (2 Hz). The data set is classed as cell-based. Here is the method: Human iPS Cardiomyocyte Contractility Assay
Frozen human iCell® cardiomyocytes (FujiFilm® Cellular Dynamics Inc.) were thawed and plated in the center of each well of an Axion® Biosystems cytoview 24-well microelectrode array plate that was coated with human fibronectin in a 5-6 μL droplet at a density of 7-10×10^6 cells/mL. The cells were maintained in culture in a 37° C. humidified incubator at 5% CO2. After at least seven days in culture with maintenance media changes every 2-3 days, the cells were paced at 2 Hz for approximately 48 hours on the Axion® Biosystems Maestro Pro instrument using the field potential application in the Axis Navigator software before returning to the spontaneous beating for at least 10 minutes in the contractility application (i.e., Axion® Biosystems procedure for Positive Inotropy Protocol). […] Readings were taken at 3, 13, 23, 33, 43 and 53 minutes. […] Each compound was evaluated for the contractility response relative to the vehicle control (DMSO). […]
Myocardial contractility represents the innate ability of the heart muscle to contract. […] Cardiomyocyte contractibility of the compounds of the invention, as defined by changes in mean % delta beat amplitude, were determined to have a positive inotropic effect (i.e., a stronger cardiac muscle contraction force).

The nature of data set [3]: Dog plasma half-life after oral dose. The data set is classed as in vivo. To be noted: oral, Beagle dogs, 0.3 mg/kg dose, plasma over 72 hours, read-out: t½ (hrs), Dog Plasma Compound Half-life (converted). As for the experimental part: Lastly, plasma half-life was assessed for a number of compounds in dogs. Beagle dogs were given an oral dose (0.1 mg/kg) of the respective compound accounting for a dose amount of about 1 mg/dog. Pimopendan was administered at a 0.3 mg/kg dose.

The subject of data set [4] is NT-proBNP. In words: NT-proBNP circulating biomarker reduction. The data set is classed as in vivo, canine. The following applies: for reduced NT-proBNP levels: over a 12 hour period. As for the experimental part: NT-proBNP is a standard circulating biomarker of canine MMVD secreted by ventricular cardiomyocytes in response to stretching from volume or pressure overload. It is a well-defined diagnostic and prognostic biological indicator of myocardial wall stress and can be used as a biomarker for acute changes in left ventricular loading conditions. […] In one instance, Example #26 had reduced NT-proBNP levels by 49% and 62% at doses of 0.03 and 0.1 mg/kg, respectively, over a 12 hour period.

For data set [5], the system named is PDE3. The following applies: JMC Vol. 35, 1992; cited from earlier work.
For data set [6] the following is noted: orally administered; cited from earlier work.
Data set [7] concerns calcium sensitization. To be noted: JMC Vol. 35, 1992; cited from earlier work.

`COc1ccc(-c2nc3ccc(C4=NNC(=O)CC4C)cc3[nH]2)cc1` (racemic) [pimobendan, 6-(2-(4-methoxyphenyl)-1H-benzo[d]imidazol-6-yl)-5-methyl-4,5-dihydropyridazin-3 (2H)-one]: the IC50 in data set [1] is ~1530 nM and 1530 nM. Also, the “contractility of cardiomyocytes (changes in mean % delta beat amplitude)” value in data set [2] was “dose dependently increases contractility”. For the same compound, in data set [3], the half-life was 0.4 h. Further, the “decrease in NT-proBNP” value in data set [4] (labeled dose, 24 hours post dose) stood at 41%. In data set [5], the IC50 was 560 nM. For the same compound, in data set [6], the bioavailability is recorded as 60-65%, the elimination half-life was ~1.6 h and the tmax entry is “about 2 hours”.
Turning to `CC1CC(=O)NN=C1c1cc(F)c2c(c1)C(C)(C)C(=O)N2` (stereo not shown) [Example #26, 7-fluoro-3,3-dimethyl-5-(4-methyl-6-oxo-1,4,5,6-tetrahydropyridazin-3-yl)indolin-2-one], the IC50 in data set [1] turned out to be 7.4 nM. Besides, the entries for the “reduced NT-proBNP levels” value in data set [4] (0.03 mg/kg) and in data set [4] (0.1 mg/kg) were 49% and 62%, respectively.
Regarding `CC1(C)C(=O)Nc2ccc(C3=NNC(=O)CC3)cc21` [indolidan], the IC50 in data set [5] was 520 nM. Moreover, the calcium-sensitizing properties entry in data set [7] was “lacked calcium-sensitizing properties”.
